According to patent US8304447B2, “2-acylaminopropoanol-type glucosylceramide synthase inhibitors” (Genzyme Corporation, priority 2007, dated 2012):
pIC50: −log10 of the molar value.

System: GM3
Assay: GM3 Elisa assay
Type: cell-based
Conditions: 48 h, Table 1; B16-FO cells, 2 days incubation; read-out: IC50_uM_Mean
Method: B16-FO cells from ATCC (American Tissue Culture Collection) were grown in DMEM media (ATCC) with 10% Fetal Bovine Serum (Hyclone) and Pen/Step/Glutamine (Biowhittaker). 4000 cells per well were plated on collagen coated plates (BD) and allowed to attach for 6 hours in an incubator (37 degrees, 5% CO2). After 6 hours the compounds and controls were added to the wells, the plates mixed and returned to the incubator for 2 days. Day of assay the cells were fixed for 20 minutes with 1% formaldehyde and then washed with Tris Buffered Saline (TBS) 3 times, 150 μl of TBS was left in the wells and 50 μl of goat serum (Invitrogen) was added, the plates mixed and incubated for 1 hour at room temperature. The plates were flicked and the cells incubated with the monoclonal Antibody to GM3 (NeuAc) (Cosmo) for 45 minutes as room temperature. The plates were then washed 3 times with TBS, leaving 150 μl of TBS in the wells and Peroxidase AffinPure F (ab′) 2 frag Gt Anti-mouse IgM, μ Chain Specific (Jackson Immuno Research) was added in 50 μl, the plates mixed and incubated for 45 minutes at room temperature. The plates were washed 3 times with TBS, flicked and blotted and 100 μl of Quantablu (Pierce) was added to the wells and incubated for 1 hour then read on a Fluorometer at Ex 325 and Em 420. The data was then analyzed using standard programs.

Structure (SMILES) | pIC50
COc1ccc(OCCC(=O)N[C@H](CN2CCCC2)[C@H](O)c2ccc3c(c2)OCCO3)cc1 [Compound 61, N-((1R,2R)-1-(2,3-dihydrobenzo[β][1,4]dioxin-6-yl)-1-hydroxy-3-(pyrrolidin-1-yl)propan-2-yl)-3-(4-methoxyphenoxy)propanamide] | ≥ 7.00
CC(C)(C)c1ccc(C(=O)CCCCCC(=O)N[C@H](CN2CCCC2)[C@@H](O)c2ccc3c(c2)OCCO3)cc1 [Compound 160, 7-(4-tert-butylphenyl)-N-((1R,2R)-1-(2,3-dihydrobenzo[β][1,4]dioxin-6-yl)-1-hydroxy-3-(pyrrolidin-1-yl)propan-2-yl)-7-oxoheptanamide] | 6.00 to 7.00
O=C(CCCCCCCCCCCc1cccnc1)N[C@H](CN1CCCC1)[C@H](O)c1ccc2c(c1)OCCO2 [Compound 305] | ≥ 7.00
O=C(Cc1ccc(-c2ccccc2)cc1)N[C@H](CN1CCCC1)[C@H](O)c1ccc2c(c1)OCCO2 [Compound 23, 2-(biphenyl-4-yl)-N-((R,2R)-1-(2,3-dihydrobenzo[β][1,4]dioxin-6-yl)-1-hydroxy-3-(pyrrolidin-1-yl)propan-2-yl)acetamide] | ≥ 7.00
O=C(CCCCCC(=O)c1ccc(Cl)cc1)N[C@H](CN1CCCC1)[C@H](O)c1ccc2c(c1)OCCO2 [Compound 159, 7-(4-chlorophenyl)-N-((1R,2R)-1-(2,3-dihydrobenzo[β][1,4]dioxin-6-yl)-1-hydroxy-3-(pyrrolidin-1-yl)propan-2-yl)-7-oxoheptanamide] | ≥ 7.00
Cc1ccc(CNC(=O)N[C@H](CN2CCCC2)[C@H](O)c2ccc3c(c2)OCCO3)cc1 [Compound 42, 1-((1R,2R)-1-(2,3-dihydrobenzo[β][1,4]dioxin-6-yl)-1-hydroxy-3-(pyrrolidin-1-yl)propan-2-yl)-3-(4-methylbenzyl)urea] | ≥ 7.00

More lines, now with the values ahead:

pIC50 | Structure (SMILES)
≥ 7.00 | COc1ccc(CCC(=O)N[C@H](CN2CCCC2)[C@H](O)c2ccc3c(c2)OCCO3)cc1Cl [Compound 92, 3-(3-chloro-4-methoxyphenyl)-N-((1R,2R)-1-(2,3-dihydrobenzo[β][1,4]dioxin-6-yl)-1-hydroxy-3-(pyrrolidin-1-yl)propan-2-yl)propanamide]
6.00 to 7.00 | O=C(Cc1cccc(C(F)(F)F)c1)N[C@H](CN1CCCC1)[C@H](O)c1ccc2c(c1)OCCO2 [Compound 51, N-((1R,2R)-1-(2,3-dihydrobenzo[β][1,4]dioxin-6-yl)-1-hydroxy-3-(pyrrolidin-1-yl)propan-2-yl)-2-(3-(trifluoromethyl)phenyl)acetamide]

Same assay, conditions: 48 h, Table 2; B16-FO cells, 2 days incubation; read-out: IC50_uM_Mean

pIC50 | Structure (SMILES)
6.00 to 7.00 | COc1ccc(CNC(=O)N(C)[C@H](CN2CCCC2)[C@H](O)c2ccc3c(c2)OCCO3)cc1 [Compound 256]
≥ 7.00 | COc1ccc(OCCC(=O)N[C@H](CN2CCCC2)[C@H](O)c2ccc(OC)cc2)cc1 [Compound 262, N-[2-Hydroxy-2-(4-methoxy-phenyl)-1-pyrrolidin-1-ylmethyl-ethyl]-3-(4-methoxy-phenoxy)-propionamide]

Same assay, conditions: Table 3 (IC 50 Values); B16-FO cells; read-out: IC50_uM_Mean

Structure (SMILES) | pIC50
COc1ccc(C(=O)CCCCCC(=O)N[C@H](CN2CCCC2)[C@H](O)c2ccc(Cl)s2)cc1 [Compound 358] | ≥ 7.00
CCCCCCOc1ccc([C@@H](O)[C@@H](CN2CC[C@@H](F)C2)NC(=O)CCCCC(=O)c2ccc(OC)cc2)cc1 [Compound 369] | ≥ 7.00
O=C(CCCCS(=O)(=O)C12CC3CC(CC(C3)C1)C2)N[C@H](CN1CCCC1)[C@H](O)c1ccc2c(c1)OCCO2 [Compound 560] | 6.00 to 7.00
COc1ccc(CN(C(=O)CCCCC(=O)c2ccc(OC)cc2)[C@H](CN2CCCC2)[C@H](O)c2ccc(O)cc2)cc1 [Compound 426] | 5.00 to 5.52
COc1ccc(C(=O)CCCCC(=O)N[C@H](CN2CCCC2)[C@H](O)c2ccc(OCCOc3ccc(C#N)cc3)cc2)cc1 [Compound 364] | ≥ 7.00
COc1ccc(C(=O)CCCCC(=O)N[C@H](CN2CCCC2)[C@H](O)c2ccc(OCCOc3ccccc3F)cc2)cc1 [Compound 366] | ≥ 7.00
COc1ccc(OCCC(=O)N[C@H](CN2CC(O)C2)[C@H](O)c2ccc3c(c2)OCCO3)cc1 [Compound 601] | 5.00 to 5.52
COc1ccc(C(=O)CCCC(=O)N[C@H](CN2CCCC2)[C@H](O)c2ccc3c(c2)OC(F)(F)O3)cc1 [Compound 405] | 5.52 to 6.00
COc1ccc(OCCC(=O)N[C@H](CN2CCCC2)[C@H](O)c2ccc(OC)c(F)c2)cc1 [Compound 341] | ≥ 7.00
O=C(N[C@H](CN1CCCC1)[C@H](O)c1ccc2c(c1)OCCO2)C1CC[C@@H](C(=O)c2ccc(F)cc2)C1 (some centres unmarked) [Compound 635] | 5.00 to 5.52
COc1ccc(C(=O)CCCCCC(=O)N[C@H](CN2CCCC2)[C@H](O)c2ccc(OC)c(C)c2)cc1 [Compound 390] | ≥ 7.00
COc1ccc(C(=O)CCCCC(=O)N[C@H](CN2CCCC2)[C@H](O)c2sccc2C)cc1 [Compound 362] | 5.00 to 5.52
COc1ccc(C(=O)CCCCCC(=O)N[C@H](CN2CCCC(C)C2)[C@H](O)c2ccc3c(c2)OCCO3)cc1 (some centres unmarked) [Compound 609] | 6.00 to 7.00
CCCCCCOc1ccc([C@@H](O)[C@@H](CN2C3CCC2CC3)NC(=O)CCCCC(=O)c2ccc(OC)cc2)cc1 [Compound 370] | ≥ 7.00
COc1ccc(C(=O)CCCCCC(=O)N[C@H](CNC2CCCCC2)[C@H](O)c2ccc3c(c2)OCCO3)cc1 [Compound 458] | 5.00 to 5.52
O=C(CC(F)(F)F)N[C@H](CN1CCCC1)[C@H](O)c1ccc2c(c1)OCCO2 [Compound 624] | 5.00 to 5.52
COc1ccc(OCCC(=O)N[C@H](CN2CCC2)[C@H](O)c2ccc3c(c2)OCCO3)cc1 [Compound 599] | 5.52 to 6.00
COc1ccc(C(=O)CCCCCC(=O)N[C@H](CN2CCCC2)[C@H](O)c2ccccc2OC)cc1 [Compound 699] | ≥ 7.00

More lines, now with the values ahead:

pIC50 | Structure (SMILES)
6.00 to 7.00 | O=C(N[C@H](CN1CCCC1)[C@H](O)c1ccc2c(c1)OCCO2)C(CCc1ccc(F)cc1)C(F)(F)F (some centres unmarked) [Compound 615]
≥ 7.00 | CCCCCCOc1ccc([C@@H](O)[C@@H](CN2CCCC2)NC(=O)CCCC(=O)c2ccc(OCCOC)cc2)cc1 [Compound 442]
5.00 to 5.52 | CCCCCCCC(=O)N[C@H](CCN1CCOCC1)[C@H](O)c1ccc2c(c1)OCCO2 [Compound 686]
≥ 7.00 | O=C(CCCCCC(=O)c1ccc(F)cc1)N[C@H](CN1CC[C@@H](F)C1)[C@H](O)c1ccc2c(c1)OCCO2 [Compound 565]
≥ 7.00 | CCCCOc1ccc([C@@H](O)[C@@H](CN2CCCC2)NC(=O)CCCCC(=O)c2ccc(OC)cc2)cc1 [Compound 434]
5.00 to 5.52 | COc1ccc(OCCC(=O)N[C@H](CN2CCC(C)CC2)[C@H](O)c2ccc3c(c2)OCCO3)cc1 [Compound 610]
6.00 to 7.00 | COc1ccc(OCCC(=O)N[C@H](CN2CCCC2)[C@H](O)c2sccc2C)cc1 [Compound 363]
5.52 to 6.00 | CCCCNC[C@@H](NC(=O)CCCCCC(=O)c1ccc(OC)cc1)C(O)c1ccc2c(c1)OCCO2 (some centres unmarked) [Compound 462]
5.00 to 5.52 | COc1ccc(OCCC(=O)N(Cc2ccccn2)[C@H](CN2CCCC2)[C@H](O)c2ccc(O)cc2)cc1 [Compound 716]
≥ 7.00 | COc1ccc(OCCC(=O)N[C@H](CN2CC[C@H](O)C2)[C@H](O)c2ccc(OCCCCF)cc2)cc1 [Compound 502]
6.00 to 7.00 | CCCCOc1ccc([C@@H](O)[C@@H](CN2CC[C@@H](F)C2)NC(=O)CCCCC(=O)C2CCCCC2)cc1 [Compound 585]
6.00 to 7.00 | COc1ccc(C(=O)CCCC(=O)N[C@H](CN2CC[C@H](O)C2)[C@H](O)c2ccc(OC(C)C)cc2)cc1 [Compound 732]
5.00 to 5.52 | CCCCCCCC(=O)N[C@H](CN1[C@H](C)CC[C@H]1C)[C@H](O)c1ccc2c(c1)OCCO2 [Compound 549]
5.00 to 5.52 | COc1ccc(C(=O)CCCCC(=O)N[C@H](CN2CCCC2)[C@H](O)/C=C/c2ccccc2)cc1 [Compound 395]
5.52 to 6.00 | CCCCCCCC(=O)N[C@H](CN1CCC[C@@H]1C)[C@@H](O)c1ccc2c(c1)OCCO2 [Compound 527]
≥ 7.00 | COc1ccc(C(=O)CCCCC(=O)N[C@H](CN2CCCC2)[C@H](O)c2ccc(OCCC3CCCCC3)cc2)cc1 [Compound 419]
5.00 to 5.52 | CCCCCCCC(=O)N[C@H](CN1CCCC1)[C@H](O)c1ccc2c(c1)OC(F)(F)C(F)(F)O2 [Compound 400]
≥ 7.00 | COc1ccc(C(=O)CCCCCC(=O)N[C@H](CN2CCCC2)[C@H](O)c2ccc(OC)c(F)c2)cc1 [Compound 345]
6.00 to 7.00 | COCCOCCOc1ccc([C@@H](O)[C@@H](CN2CCCC2)NC(=O)CCOc2ccc(OC)cc2)cc1 [Compound 713]
5.52 to 6.00 | COc1ccc(C(=O)CCCCC(=O)N[C@H](CN2CCCC2)[C@H](O)c2ccc3c(c2)OC(F)(F)C(F)(F)O3)cc1 [Compound 403]
5.00 to 5.52 | COc1ccc(C(=O)CCCC(=O)N[C@H](CN2CCCC2)[C@H](O)c2sccc2C)cc1 [Compound 361]
5.52 to 6.00 | COc1ccc(C(=O)CCCCCC(=O)N[C@H](CN2CCCC2)[C@H](O)c2cc(OC)c(OC)c(OC)c2)cc1 [Compound 668]
5.52 to 6.00 | COCCc1ccc([C@@H](O)[C@@H](CN2CCCC2)NC(=O)CCOc2ccc(OC)cc2)cc1 [Compound 356]
6.00 to 7.00 | COc1ccc(C(=O)CCCCC(=O)N[C@H](CN2CCCC2)[C@H](O)c2ccc(Cl)s2)cc1 [Compound 494]
6.00 to 7.00 | CCCCCCCC(=O)N[C@H](CN1CCCC1)[C@H](O)c1ccc(C)c(F)c1 [Compound 348]
